Common to all, as to assay type: cell-based
Assay [1] concerns HEL 92.1.7 cells. The experiment in a line: Cell proliferation assay (CCK8). As to conditions: HEL 92.1.7, 48 h. On the procedure:
(§1) This example describes inhibition of in vitro cell proliferation with exemplary HDAC11 inhibitors. The effects of selective HDAC11 inhibitors on cell proliferation were measured in cell lines containing the MPN-associated mutations MPL W515L (Ba/F3 MPL W515L) and JAK2 V617F (Ba/F3 JAK2 V617F, HEL 92.1.7, SET-2). HEL 92.1.7 and SET-2 cells were purchased from the ATCC and DSMZ, respectively. Ba/F3 cells overexpressing either MPLW515L or JAK2V617F, which were cytokine independent, were generated by transforming Ba/F3 cells with retroviruses overexpressing either MPL W515L or JAK2V617F. For survival assays, cells were seeded in 96-well plates at the density of 0.1 million/ml with addition of indicated compounds and incubated at 37° C. for 48 h. CCK8 solution (Dojindo, Rockville, Md.) was added and absorbance at 450 nm was measured after 3 hours of incubation. Readings were normalized to dimethylsulfoxide (DMSO)-treated wells.

The subject of assay [2] is SET-2 cells. Description: Cell proliferation assay (CCK8). The conditions noted are these: Ruxolitinib-resistant SET-2. As for the experimental part: as §1
Assay [3] concerns STAT3 phosphorylation in HEL 92.1.7 cells. The experiment in a line: STAT3 and STAT5 phosphorylation western blot assay. The conditions noted are these: HEL 92.1.7, western blot. As for the experimental part: (§2) The effects of selective HDAC11 inhibition on STAT3 and […] phosphorylation in HEL 92.1.7 cells were determined by western blot. Cells were treated with HDAC11 inhibitors and lysed in RIPA buffer (Sigma-Aldrich, St. Louis, Mo.) supplemented with protease inhibitors (Roche, Basel, Switzerland) and phosphatase inhibitors (Sigma P5726). Protein concentrations were determined with Pierce BCA protein assay kit (Thermo Fisher Scientific, Waltham, Mass.). Proteins were separated on a 4-12% Bis-Tris gradient electrophoresis gel (Life Technologies, Carlsbad, Calif.) and transferred onto a nitrocellulose membrane. The membrane was then blocked in either 5% nonfat dry milk or 5% BSA followed by incubation with primary antibodies at 4° C. overnight. Antibodies for p-STAT5 (Abcam 32364), STAT5 (Cell Signaling 9358), p-STAT3 (Cell Signaling 9145) and STAT3 (Cell Signaling 9139) were used. β-actin was used as loading control.

The subject of assay [4] is STAT5 phosphorylation in HEL 92.1.7 cells. The experiment in a line: STAT3 and STAT5 phosphorylation western blot assay. As to conditions: HEL 92.1.7, western blot. As for the experimental part:
as §2
(In western blotting, separated proteins are transferred to a membrane and probed.)

Assay [5] relates to H1650 SP cells. Description: Tube formation assay with stem-like side population NSCLC cells. The conditions noted are these: H1650 SP cells on Matrigel. As for the experimental part: The angiogenic tubule assay was performed with the sorted side population cells to analyze vascular mimicry. The H1650 side population cells were sorted as mentioned above and they were further grown on Matrigel (BD Biosciences) to form angiogenic tubule-like structures. 100 μl of thawed Matrigel was layered on the wells of 96-well tissue culture plates and allowed to polymerize at 37° C. for 30 min. Sorted H1650 SP cells were layered (12000 cells/100 μl of Matrigel) on the polymerized matrigel and incubated overnight at 37° C. Tubule formation was assessed under bright field using EVOS FL microscope system and images were acquired with EVOS software (Life Technologies Inc., USA). For the treatment with HDAC11 inhibitors, appropriate concentrations of the compounds were added to the cells when they were seeded on Matrigel for the tubule formation assay.

The test system of assay [6] is A549 cells. Description: Cell migration scratch assay. As for the experimental part:
The effects of HDAC11 inhibition on cell migration were determined using a scratch assay. A549 cells (120,000-150,000 cells/2 ml/well) were grown in 6-well tissue culture plates (BD Biosciences). A scratch was made using a sterile 2 μl pipette tip in each well. The 10% FBS containing medium was added to the wells after a wash with DPBS. To assess the effect of the HDAC11 inhibitors on cell migration, the inhibitors were added in the medium at appropriate concentrations. The cells were further incubated at 37° C. The images were taken on Day 0 and after every 24 hours using EVOS FL microscope system and EVOS software (Life Technologies Inc) and the cell migration was compared to the Day 0 of treatment.

The subject of assay [7] is H1650 cells co-cultured with primary CAFs. Description: Co-culture assay with cancer cells and cancer associated fibroblasts. As to conditions: 1:1 co-culture. On the procedure:
(§3) The effects of selective HDAC11 inhibition on cancer cells and cancer associated fibroblasts (CAFs) were determined in a co-culture assay. The cells were first trypsinized and collected in serum containing medium and were further incubated in same media at 37° C. for 15-20 min for recovery. The cells were resuspended in serum free media at 1×10^6 cells/ml density and stained with 10 uM of cytotracker green (Cancer associated fibroblasts) or cytotracker red dye (H1650 cells) (Life Technologies Inc) at 37° C. for 90 min. The stained cells were washed twice with serum free medium to remove excess dye at 1500 rpm for 5 min. The cytotracker green stained CAFs were mixed with cytotracker red stained H1650 cells in 1:1 ratio and grown in 96-well tissue culture plate overnight. The HDAC11 inhibitors were then added to the mixed adhered cells (CAFs+H1650) at appropriate concentrations. The images were taken on Day 0 and after every 24 hours using EVOS FL microscope system and EVOS software (Life Technologies Inc).

Assay [8] relates to primary CAFs from human lung cancer. The assay is described as above. The conditions noted are these: 1:1 co-culture with H1650. On the procedure:
as §3

As for `O=C(NO)c1cccc(Nc2nc3cc(Cl)c(Cl)cc3o2)c1` [HDTK010, 3-((5,6-dichlorobenzo[d]oxazol-2-yl)amino)-N-hydroxybenzamide], the “growth of the HEL 92.1.7 cell line” value in assay [1] was “inhibited the growth”. The “growth of SET-2 cell line generated to be Ruxolitinib-resistant” value in assay [2] is recorded as “inhibited the growth”. The STAT3 phosphorylation result in assay [3] is “inhibited”. The STAT5 phosphorylation result in assay [4] is listed as “inhibited”.

In the case of `O=C(NO)c1cccc2c1C[C@]1(CCN(Cc3ccc(Cl)c(C(F)(F)F)c3)C1=O)C2` [HDTK054, (S)-1′-(4-chloro-3-(trifluoromethyl)benzyl)-N-hydroxy-2′-oxo-1,3-dihydrospiro[indene-2,3′-pyrrolidine]-4-carboxamide], in assay [5], the tubule formation entry was “inhibited tubule formation”. Besides, the cell migration entry in assay [6] is on record as “impaired”. Besides, the “growth of H1650 cells co-cultured with primary CAFs” value in assay [7] is “inhibit the growth”. The “effects on CAFs” value in assay [8] was “minimal effects”.

The values above are taken from patent publication US10508088B2, “Methods using HDAC11 inhibitors” (FORMA Therapeutics, Inc., priority 2016, dated 2019).
